The source made the active and inactive calls. The calls are words filed in the database; no cut-off is given here.
Assays:
[1] = Inhibition of yeast alpha-glucosidase using PNP glycoside as substrate after 30 mins by spectrophotometry; parameters: species or system Saccharomyces cerevisiae
Saccharomyces cerevisiae [2] = experiment: Ratio of 1,3-dihydroxy-9H-xanthen-9-one IC50 to compound IC50 for yeast alpha-glucosidase
Saccharomyces cerevisiae [3] = experiment: Ratio of 1,3,6-trihydroxy-9H-xanthen-9-one IC50 to compound IC50 for yeast alpha-glucosidase
Saccharomyces cerevisiae [4] = experiment: Ratio of 1,3-dihydroxy-7-methyl-9H-xanthen-9-one IC50 to compound IC50 for yeast alpha-glucosidase
[5] = Non competitive inhibition of yeast alpha-glucosidase using PNP glycoside as substrate preincubated for 30 mins by Lineweaver-Burk plot analysis; parameters: species or system Saccharomyces cerevisiae
Saccharomyces cerevisiae [6] = experiment: Non competitive inhibition of yeast alpha-glucosidase using PNP glycoside as substrate at 15.3 uM preincubated for 30 mins by Lineweaver-Burk plot analysis
Saccharomyces cerevisiae [7] = experiment: Ratio of 1,3,6,8-tetrahydroxy-9H-xanthen-9-one IC50 to compound IC50 for yeast alpha-glucosidase
Saccharomyces cerevisiae [8] = experiment: Non competitive inhibition of yeast alpha-glucosidase using PNP glycoside as substrate at 34.8 uM preincubated for 30 mins by Lineweaver-Burk plot analysis
Saccharomyces cerevisiae [9] = experiment: Non competitive inhibition of yeast alpha-glucosidase using PNP glycoside as substrate at 25.4 uM preincubated for 30 mins by Lineweaver-Burk plot analysis

Row | SMILES | IC50 [1] | other results
1 | Cc1ccc2oc3c(-c4c(O)ccc5ccccc45)c(O)c(-c4c(O)ccc5ccccc45)c(O)c3c(=O)c2c1 | 6.4 µM | –
2 | O=c1c2ccccc2oc2cc(O)cc(O)c12 | 161 µM | –
3 | O=c1c2ccc(O)cc2oc2cc(O)cc(O)c12 | 41.5 µM | –
4 | O=c1c2ccccc2oc2cc(O)c(-c3c(O)ccc4ccccc34)c(O)c12 | 47.7 µM | Ratio IC50 (Saccharomyces cerevisiae [2]): 2
5 | O=c1c2ccccc2oc2c(-c3c(O)ccc4ccccc34)c(O)c(-c3c(O)ccc4ccccc34)c(O)c12 | 10.1 µM | –
6 | O=c1c2ccc(O)cc2oc2cc(O)c(-c3c(O)ccc4ccccc34)c(O)c12 | 10.5 µM | Ratio IC50 (Saccharomyces cerevisiae [3]): 2
7 | O=c1c2ccc(O)cc2oc2c(-c3c(O)ccc4ccccc34)c(O)c(-c3c(O)ccc4ccccc34)c(O)c12 | 6.2 µM | –
8 | Cc1ccc2oc3cc(O)cc(O)c3c(=O)c2c1 | > 200 µM | –
9 | Cc1ccc2oc3cc(O)c(-c4c(O)ccc5ccccc45)c(O)c3c(=O)c2c1 | 26.5 µM | Ratio IC50 (Saccharomyces cerevisiae [4]): 2
10 | O=c1c2ccccc2oc2cc(O)c(-c3c(O)ccc4ccc(O)cc34)c(O)c12 | 75.4 µM | –
11 | Cc1ccc2oc3cc(O)c(-c4c(O)ccc5ccc(O)cc45)c(O)c3c(=O)c2c1 | 112 µM | –
12 | O=c1c2c(O)cc(O)cc2oc2cc(O)c(-c3c(O)ccc4ccccc34)c(O)c12 | 8.1 µM | Ki [5]: 29.2 µM; inhibition (Saccharomyces cerevisiae [6]): Active; Ratio IC50 (Saccharomyces cerevisiae [7]): 2
13 | OC[C@H]1NC[C@H](O)[C@@H](O)[C@@H]1O [DUVOGLUSTAT] | 40 µM | –
14 | O=c1c2ccc(O)cc2oc2cc(O)c(-c3c(O)ccc4ccc(O)cc34)c(O)c12 | 47.6 µM | –
15 | O=c1c2c(O)cc(O)cc2oc2cc(O)cc(O)c12 | 17.2 µM | Ki [5]: 62.8 µM; inhibition (Saccharomyces cerevisiae [8]): Active
16 | O=c1c2c(O)cc(O)cc2oc2cc(O)c(-c3c(O)ccc4ccc(O)cc34)c(O)c12 | 17.4 µM | Ki [5]: 50.9 µM; inhibition (Saccharomyces cerevisiae [9]): Active
